Entries after “also recorded” stand apart in the source; their conditions may differ. Where a name gives a salt, the structure may show the parent alone. Read-outs that look alike come from different tables or passages of the source. Where no end group is shown, it is not given here. [ ]: non-standard residue; d: D form. Lys(Me2) = CN(C)CCCC[C@H](N)C(=O)O
Experiments:
human recombinant LSD1 [1] = assay type: biochemical
[2] = tested on: ACE2 (pan-methylation lysine), Caco-2 cells; assay type: cell-based, human
[3] = tested on: SARS-CoV-2 spike protein at Caco-2 cell surface; assay type: cell-based
[4] = tested on: ACE2-SARS-CoV-2 spike protein interaction, Caco-2 cells; assay type: cell-based, human / SARS-CoV-2
SARS-CoV-2 [5] = assay type: cell-based
SARS-CoV-2 [6] = assay type: cell-based; remark: listed apart in the source
[7] = tested on: SARS-CoV-2-infected Caco-2 cells; assay type: cell-based, human
[8] = tested on: SARS-CoV-2-infected Caco-2 cells; assay type: cell-based, human; remark: listed apart in the source
[9] = tested on: SARS-CoV-2-infected Caco-2 cells; assay type: cell-based, human / SARS-CoV-2
[10] = tested on: ACE2-IMPα3 colocalization, SARS-CoV-2-infected Caco-2 cells; assay type: cell-based, human
Caco-2 cells [11] = tested on: Caco-2 cells
Caco-2 cells [12] = tested on: Caco-2 cells; remark: listed apart in the source
LSD1 = conditions: cited from earlier work
[13] = tested on: SARS-CoV-2-S-driven entry, Caco-2 cells; conditions: cited from earlier work
COVID-19 = conditions: cited from earlier work
[14] = tested on: nuclear LSD1/CoREST complex; conditions: cited from earlier work
[15] = tested on: T cells in human breast cancer; conditions: cited from earlier work
human recombinant LSD1 [16] = assay: LSD1 demethylation assay with di-methylated ACE2 peptides as substrates; assay type: biochemical; conditions: for Demethylation of NLS peptides by LSD1 (rank order): LSD1 fluorimetric kit, background subtracted, one-way ANOVA P < 0.0001 (Fig. 4d)
ACE2, Caco-2 cells = assay type: cell-based, human; conditions: Caco-2, FAM5-tagged NACE2i, single treatment, after 8 h and up to 96 h; P < 0.0001 (Fig. 5b)
Caco-2 cells [17] = assay type: physicochemical, human; conditions: FAM5-tagged peptide, single treatment, Caco-2 culture, over 96 h, fluorescence imaging
SARS-CoV-2 [18] = conditions: cited from earlier work

For `N[C@@H]1C[C@H]1c1ccccc1` (racemic) [tranylcypromine], the “ACE2 lysine 31 (ACE2me2 peptide) demethylation” value (human recombinant LSD1 [1]) was “significantly decreased ACE2 lysine 31 demethylation”.

In the case of `O=C(O)c1ccc(CN2CCC(CN[C@@H]3C[C@H]3c3ccccc3)CC2)cc1` [GSK, GSK2879552], the “ACE2 lysine 31 (ACE2me2 peptide) demethylation” value (human recombinant LSD1 [1]) is reported as “further decreases were observed”, the “association between ACE2 and pan-methylation lysine antibody (PLA)” value [2] is reported as “increased the association between ACE2 and pan-methylation lysine antibody in infected cells” and the “spike protein expression at the cell surface” value [3] is reported as “to a greater extent GSK treatment, reduced spike protein expression at the cell surface of infected cells”. The “ACE2/spike interaction at cell surface (PLA)” value [4] was “significantly decreased interaction”, the “viral RNA levels in culture supernatants” value (SARS-CoV-2 [5]) was “negligibly reduced viral RNA levels in culture supernatants” and the “inhibition of viral RNA in infected cells (comparison)” value (SARS-CoV-2 [6]) was “greatest inhibition of viral RNA in infected cells”. For the same molecule, the “viral load, % virus-aligned reads over total reads” value (SARS-CoV-2 [6]) was 1%, the “enriched Reactome pathways vs control” value [7] was “downregulated genes enriched in the IFN pathway” and the “number of differentially expressed genes vs control” value [7] was 73 DEGs. For the same molecule, the “LSD1, ACE2, and TMPRSS2 transcript” value [8] was “remained unaltered”, the “RIG1, MDA5, and ISG15 mRNA” value [8] was “remained unaltered” and the “SARS-CoV-2 spike protein expression” value [9] was “decreased SARS-CoV-2 spike protein expression”. For the same molecule, the “co-localization of ACE2 and SARS-CoV-2 spike protein” value [9] was “significantly reduced the co-localization of ACE2 and SARS-CoV-2 spike protein”, the IMPα3 nuclear expression [10] was “no effect on IMPα3 nuclear expression” and the “co-localization of ACE2 and IMPα3 (PCC)” value [10] was “minimal effect”. For the same molecule, the cell proliferation (Caco-2 cells [11]) was “neither altered cell proliferation”, the cell viability (Caco-2 cells [12]; uninfected Caco-2, up to 72 h, n=3 (Fig. S2d)) was over 90% and the “inhibition of LSD1 catalytic activity (compared with phenelzine)” value (LSD1) was “significantly more potent inhibitor of LSD1 catalytic activity than phenelzine”.

With `C/C(=N\NC(=O)c1cccc(S(=O)(=O)N2CCOCC2)c1)c1cc(Cl)ccc1O` [SP2509] the “ACE2 lysine 31 (ACE2me2 peptide) demethylation” value (human recombinant LSD1 [1]; LSD1 incubated with inhibitor 30 min at room temperature, LSD1 fluorimetric kit, 40 s intervals, one-way ANOVA P < 0.0001 (Fig. 2a)) was “showed the highest inhibitory potency of all the LSD1 inhibitors in vitro”.

For `CN(C)C(=O)COC(=O)Cc1ccc(OC(=O)c2ccc(NC(=N)N)cc2)cc1` [camostat mesylate], the SARS-CoV-2-S-driven entry [13] is given as “partially blocked SARS-CoV-2-S-driven entry into Caco-2 cells”.

For `CCN(CCO)CCCC(C)Nc1ccnc2cc(Cl)ccc12` (stereo not shown) [hydroxychloroquine], the “clinical outcome in COVID-19” value (COVID-19) is listed as “lack of effect or even increased harm”.

With `NNCCc1ccccc1` [phenelzine] the “spike protein expression at the cell surface” value [3] was “reduced spike protein expression at the cell surface of infected cells”, the “viral RNA levels in culture supernatants” value (SARS-CoV-2 [5]) was “negligibly reduced viral RNA levels in culture supernatants” and the “DUSP1, DUSP6, DUPS8 expression” value [7] was “highly upregulated”. The IRF7 gene expression [7] was “upregulation of IRF7 gene expression”, the “enriched Reactome pathways vs control” value [7] was “translation and MAPK pathways were enriched; also recorded: post-transcriptional protein phosphorylation and amino acid synthesis and interconversion (transamination) processes were significantly enriched; also recorded: regulates MAPK signaling-related pathways” and the “number of differentially expressed genes vs control” value [7] was 1059 DEGs. For the same molecule, the “IFNβ and OASL expression” value [8] was “further increased”, the “LSD1, ACE2, and TMPRSS2 transcript” value [8] was “remained unaltered” and the “RIG1, MDA5, and ISG15 mRNA” value [8] was “remained unaltered”. The “SARS-CoV-2 spike protein expression” value [9] was “decreased SARS-CoV-2 spike protein expression”, the “co-localization of ACE2 and SARS-CoV-2 spike protein” value [9] was “significantly reduced the co-localization of ACE2 and SARS-CoV-2 spike protein” and the IMPα3 nuclear expression [10] was “no effect on IMPα3 nuclear expression”. The “co-localization of ACE2 and IMPα3 (PCC)” value [10] was “minimal effect”, the cell proliferation (Caco-2 cells [11]) was “neither altered cell proliferation” and the cell viability (Caco-2 cells [12]) was over 90%. For the same molecule, the “disruption of nuclear LSD1/CoREST complex” value [14] was “can disrupt the nuclear LSD1/CoREST complex” and the T cell responses [15] was “epigenetically restore T cell responses in human breast cancer”.

In the case of QAKTFLD[Lys(Me2)]FNHEAED [ACE2me2], the “Demethylation of peptide by LSD1 (substrate)” value (human recombinant LSD1 [16]; ACE2me2 peptide, lysine 31, fluorescence) is reported as “efficiently de-methylated”.

With “TGIRDRKKKNKARS-(FAM5) [FAM5-tagged NACE2i]” the “nuclear ACE2 expression over time” value (ACE2, Caco-2 cells) was “significantly inhibited nuclear ACE2 expression after 8 h and up to 96 h” and the peptide stability (Caco-2 cells [17]) was “stable over time”.

In the case of TGIRDRKK[Lys(Me2)]NKARS [PEP3], the “Demethylation of NLS peptides by LSD1 (rank order)” value (“Demethylation of NLS peptides” below) (human recombinant LSD1 [16]) is reported as “followed by PEP3, PEP2, and PEP1”.

With TGIRDRK[Lys(Me2)]KNKARS [PEP2] the “Demethylation of NLS peptides” value (human recombinant LSD1 [16]) was “followed by PEP3, PEP2, and PEP1”.

In the case of TGIRDR[Lys(Me2)]KKNKARS [PEP1], the “Demethylation of NLS peptides” value (human recombinant LSD1 [16]) is reported as “followed by PEP3, PEP2, and PEP1”.

With TGIRDR[Lys(Me2)]K[Lys(Me2)]NKARS [PEP4] the “Demethylation of NLS peptides” value (human recombinant LSD1 [16]) was “greatest demethylation”.

For ivermectin, the SARS-CoV-2 replication (SARS-CoV-2 [18]) is listed as “inhibits SARS-CoV-2 replication”.

In the case of tocilizumab, the “clinical outcome in COVID-19” value (COVID-19) is given as “mixed results in clinical studies”.

B1: sarilumab (antibody, chains of the INN, looked up, V domains shown)
VH: EVQLVESGGGLVQPGRSLRLSCAASRFTFDDYAMHWVRQAPGKGLEWVSGISWNSGRIGYADSVKGRFTISRDNAENSLFLQMNGLRAEDTALYYCAKGRDSFDIWGQGTMVTVSS
VL: DIQMTQSPSSVSASVGDRVTITCRASQGISSWLAWYQQKPGKAPKLLIYGASSLESGVPSRFSGSGSGTDFTLTISSLQPEDFASYYCQQANSFPYTFGQGTKLEIK
For B1, the “clinical outcome in COVID-19” value (COVID-19) is listed as “mixed results in clinical studies”.
